The target in data set [1] is T1, Melanocortin receptor 3 (Homo sapiens, UniProt P41968). Briefly: Concentration of compound at 50% maximum cAMP accumulation at human melanocortin-3 receptor. The format is functional.
Data set [2] concerns the target T2, Melanocortin receptor 5 (Homo sapiens, UniProt P33032). Briefly: Concentration of compound at 50% maximum cAMP accumulation at human melanocortin-5 receptor. The class given is functional. Background: Changes in cAMP serve as a functional read-out for many G protein-coupled receptors.
The target in data set [3] is T3, Melanocortin receptor 4 (Homo sapiens, UniProt P32245). Nature of the data set: Concentration for 50% inhibition of human melanocortin-4 receptor expressed in CHO cells using [125I]NDP-alpha-MSH as radioligand. The class given is cell-based.
Data set [4] addresses T3, Melanocortin receptor 4. Briefly: Effective concentration towards human melanocortin-4 receptor mediated cAMP accumulation in CHO cells. The class given is functional, cell-based.
For data set [5], the target named is T2, Melanocortin receptor 5. Nature of the data set: Effective concentration towards human melanocortin-5 receptor mediated cAMP accumulation in CHO cells. The format is functional, cell-based.
The target in data set [6] is T1, Melanocortin receptor 3. Briefly: Effective concentration towards human melanocortin-3 receptor mediated cAMP accumulation in CHO cells. The class given is functional, cell-based, Rattus norvegicus.
A short description of data set [7]: Half life at 0.5 mg/kg intravenous administration and 2 mg/kg peroral administration. The class given is ADME, organism-based, Canis lupus familiaris. Particulars: dog, in vivo.
The nature of data set [8]: Percent bioavailability at 0.5 mg/kg intravenous administration and 2 mg/kg peroral administration. The format is ADME, organism-based, Canis lupus familiaris. Particulars: dog, in vivo, po.
Data set [9] is described as follows: Vdss at 1 mg/kg intravenous administration and 2 mg/kg peroral administration. The class given is ADME, organism-based. The settings on record: cercopithecidae, in vivo, read-out: Vdss.
Data set [10] addresses T2, Melanocortin receptor 5. Briefly: Concentration for 50% inhibition of human melanocortin-5 receptor expressed in CHO cells using [125I]NDP-alpha-MSH as radioligand. The class given is cell-based.
Data set [11] in a line: Half life at 1 mg/kg intravenous administration and 5 mg/kg peroral administration. The settings on record: rat, in vivo. The format is ADME, organism-based.
A short description of data set [12]: Maximum time taken by the compound at 1 mg/kg intravenous administration and 2 mg/kg peroral administration. The class given is ADME, organism-based. The settings on record: cercopithecidae, in vivo, po.
A short description of data set [13]: Percent bioavailability at 1 mg/kg intravenous administration and 5 mg/kg peroral administration. Particulars: rat, in vivo, po. The format is ADME, organism-based.
Data set [14] is described as follows: Maximum time taken by the compound at 1 mg/kg intravenous administration and 5 mg/kg peroral administration. Particulars: rat, in vivo, po. The format is ADME, organism-based.
The nature of data set [15]: Clearance at 0.5 mg/kg intravenous administration and 2 mg/kg peroral administration. The format is ADME, organism-based, Canis lupus familiaris. The settings on record: dog, in vivo.
In data set [16] the target is T4, Melanocyte-stimulating hormone receptor (Homo sapiens, UniProt Q01726). Nature of the data set: Effective concentration towards human melanocortin-1 receptor mediated cAMP accumulation in CHO cells. The format is functional, cell-based.
Target sequence in this assay (Q01726 whole entry): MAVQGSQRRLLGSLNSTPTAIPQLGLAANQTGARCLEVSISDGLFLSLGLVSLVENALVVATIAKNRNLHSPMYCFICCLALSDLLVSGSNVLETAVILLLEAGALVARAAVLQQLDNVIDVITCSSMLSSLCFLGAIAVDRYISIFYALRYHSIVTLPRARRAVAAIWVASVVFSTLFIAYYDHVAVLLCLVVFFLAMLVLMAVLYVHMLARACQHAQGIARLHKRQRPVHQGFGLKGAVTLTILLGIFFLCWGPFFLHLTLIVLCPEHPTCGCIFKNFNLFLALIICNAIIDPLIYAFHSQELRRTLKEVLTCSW
Data set [17] deals with T4, Melanocyte-stimulating hormone receptor. Briefly: Concentration of compound at 50% maximum cAMP accumulation at human melanocortin-1 receptor. The format is functional.
Target sequence in this assay (Q01726 whole entry, looked up): as the sequence (Q01726 whole entry) above
Data set [18] is described as follows: Vdss at 1 mg/kg intravenous administration and 5 mg/kg peroral administration. The settings on record: rat, in vivo, read-out: Vdss. The format is ADME, organism-based.
Data set [19] has as its target Melanocortin receptor 3 (Rattus norvegicus) (UniProt P32244). Nature of the data set: Concentration of compound at 50% maximum cAMP accumulation at rat melanocortin-3 receptor. The class given is functional.
A further data set relates to Rattus norvegicus. Nature of the data set: Percent increase in erectile activity in rats after intravenous administration of 3 mg/kg compound. The format is functional.
Data set [20] deals with Melanocortin receptor 4 (Mus musculus) (UniProt P56450). Briefly: Concentration of compound at 50% maximum cAMP accumulation at mouse melanocortin-4 receptor. The format is functional.
A short description of data set [21]: Half life at 1 mg/kg intravenous administration and 2 mg/kg peroral administration. The settings on record: cercopithecidae, in vivo. The class given is ADME, organism-based.
Data set [22] can be described thus: Percent bioavailability at 1 mg/kg intravenous administration and 2 mg/kg peroral administration. The class given is ADME, organism-based. The settings on record: cercopithecidae, in vivo, po.
In data set [23] the target is T1, Melanocortin receptor 3. Briefly: Concentration for 50% inhibition of human melanocortin-3 receptor expressed in CHO cells using [125I]NDP-alpha-MSH as radioligand. The format is cell-based.
Data set [24] is described as follows: Vdss at 0.5 mg/kg intravenous administration and 2 mg/kg peroral administration. The format is ADME, organism-based, Canis lupus familiaris. The settings on record: dog, in vivo, read-out: Vdss.
Data set [25] addresses Melanocortin receptor 4 (Rattus norvegicus) (UniProt P70596). Briefly: Concentration of compound at 50% maximum cAMP accumulation at rat melanocortin-4 receptor. The class given is functional.
Data set [26] in a line: Percentage of cAMP accumulation at 10 uM of compound relative toa-MSH was determined. The class given is functional.
Data set [27] is described as follows: Clearance at 1 mg/kg intravenous administration and 5 mg/kg peroral administration. The format is ADME, organism-based. Particulars: rat, in vivo.
The nature of data set [28]: Clearance at 1 mg/kg intravenous administration and 2 mg/kg peroral administration. The class given is ADME, organism-based. The settings on record: cercopithecidae, in vivo.
Data set [29] is described as follows: Maximum time taken by the compound at 0.5 mg/kg intravenous administration and 2 mg/kg peroral administration. Particulars: dog, in vivo, po. The format is ADME, organism-based, Canis lupus familiaris.
Data set [30] concerns the target T4, Melanocyte-stimulating hormone receptor. Nature of the data set: Concentration for 50% inhibition of human melanocortin-1 receptor expressed in CHO cells using [125I]-NDP-alpha-MSH as radioligand. The format is cell-based.
Target sequence in this assay (Q01726 whole entry): as above

SMILES strings stand for the structures. Where “and” joins values, the source holds several entries; their conditions need not be identical. Equal values may be shown once.

T1 sequence (P41968 whole entry): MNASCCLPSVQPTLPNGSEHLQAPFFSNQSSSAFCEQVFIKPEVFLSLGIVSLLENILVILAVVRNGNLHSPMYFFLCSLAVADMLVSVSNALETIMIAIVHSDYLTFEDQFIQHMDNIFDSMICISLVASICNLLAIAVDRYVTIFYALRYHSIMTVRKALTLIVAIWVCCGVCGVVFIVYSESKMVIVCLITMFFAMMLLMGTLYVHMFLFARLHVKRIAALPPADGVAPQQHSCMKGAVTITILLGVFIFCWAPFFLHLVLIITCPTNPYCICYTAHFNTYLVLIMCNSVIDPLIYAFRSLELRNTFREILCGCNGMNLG
T3 sequence (P32245 whole entry): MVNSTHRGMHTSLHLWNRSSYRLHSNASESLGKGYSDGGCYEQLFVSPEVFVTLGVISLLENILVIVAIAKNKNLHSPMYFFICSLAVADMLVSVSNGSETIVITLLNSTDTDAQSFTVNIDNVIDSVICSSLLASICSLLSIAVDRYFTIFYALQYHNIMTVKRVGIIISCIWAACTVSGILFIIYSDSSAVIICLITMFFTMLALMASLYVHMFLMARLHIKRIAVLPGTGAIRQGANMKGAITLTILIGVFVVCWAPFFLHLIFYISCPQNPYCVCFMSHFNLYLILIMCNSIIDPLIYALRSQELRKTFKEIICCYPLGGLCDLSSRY
T2 sequence (P33032 whole entry): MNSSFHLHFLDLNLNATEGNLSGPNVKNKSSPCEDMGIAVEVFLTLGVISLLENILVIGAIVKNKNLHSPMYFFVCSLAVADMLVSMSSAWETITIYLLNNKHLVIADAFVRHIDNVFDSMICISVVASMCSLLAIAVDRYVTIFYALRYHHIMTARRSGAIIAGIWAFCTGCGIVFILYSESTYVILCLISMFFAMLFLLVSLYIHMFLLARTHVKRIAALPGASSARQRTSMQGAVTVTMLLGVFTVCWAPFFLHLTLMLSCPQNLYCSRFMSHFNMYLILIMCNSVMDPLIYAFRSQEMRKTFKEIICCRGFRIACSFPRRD
Melanocortin receptor 4 (Rattus norvegicus), sequence (P70596 whole entry): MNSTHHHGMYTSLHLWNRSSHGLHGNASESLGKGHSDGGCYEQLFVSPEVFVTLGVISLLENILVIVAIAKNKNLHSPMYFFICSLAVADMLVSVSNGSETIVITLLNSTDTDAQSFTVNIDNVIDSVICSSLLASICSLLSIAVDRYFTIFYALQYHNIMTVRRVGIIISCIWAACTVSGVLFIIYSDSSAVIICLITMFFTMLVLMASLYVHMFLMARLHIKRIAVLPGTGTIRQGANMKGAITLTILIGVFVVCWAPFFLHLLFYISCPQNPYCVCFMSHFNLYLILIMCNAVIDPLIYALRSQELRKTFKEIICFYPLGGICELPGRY
Melanocortin receptor 3 (Rattus norvegicus), sequence (P32244 whole entry): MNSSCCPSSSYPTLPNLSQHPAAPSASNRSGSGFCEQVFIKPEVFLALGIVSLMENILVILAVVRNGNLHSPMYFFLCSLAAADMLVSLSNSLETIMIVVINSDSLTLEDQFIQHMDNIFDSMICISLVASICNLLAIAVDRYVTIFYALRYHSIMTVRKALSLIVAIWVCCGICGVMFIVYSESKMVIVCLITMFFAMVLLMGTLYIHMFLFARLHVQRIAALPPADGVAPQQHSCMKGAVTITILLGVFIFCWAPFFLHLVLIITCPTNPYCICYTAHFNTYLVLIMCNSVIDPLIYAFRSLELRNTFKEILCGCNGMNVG
Melanocortin receptor 4 (Mus musculus), sequence (P56450 whole entry): as the sequence (P70596 whole entry) above, with H21Y, S36P, T199S, A239T, P329S, G330S counted along it

`CN1CCN[C@H](C(=O)N[C@@H](Cc2ccc(F)cc2)C(=O)N2CCC(C(=O)NC(C)(C)C)(C3CCCCC3)CC2)C1`: the results for the cAMP accumulation at Melanocortin receptor 3 [1] and on Melanocortin receptor 5 [2] were 1% and 3%, respectively.
`CN1CCN[C@@H](C(=O)N[C@H](Cc2ccc(F)cc2)C(=O)N2CCC(C(=O)NC(C)(C)C)(C3CCCCC3)CC2)C1`: the cAMP accumulation came to 7% on Melanocortin receptor 3 [1] and 39% on Melanocortin receptor 5 [2]. Moreover, the IC50 at Melanocortin receptor 4 [3] is 52 nM. Further, the concentration giving a half-maximal response (EC50) at Melanocortin receptor 4 [4] is 82 nM; at Melanocortin receptor 5 [5], 2700 nM.
For `CCN1CCN[C@H](C(=O)N[C@H](Cc2ccc(F)cc2)C(=O)N2CCC(C(=O)NC(C)(C)C)(C3CCCCC3)CC2)C1` the same measures were 3%, 20%, 20 nM, 52 nM and 840 nM.
For `CC(C)CN1CCN[C@H](C(=O)N[C@H](Cc2ccc(F)cc2)C(=O)N2CCC(C(=O)NC(C)(C)C)(C3CCCCC3)CC2)C1` the same measures were 19%, 22%, 8 nM, 34 nM and 340 nM.
For `CC(C)(C)NC(=O)C1(C2CCCCC2)CCN(C(=O)[C@@H](Cc2ccc(F)cc2)NC(=O)[C@@H]2CNCCN2C(=O)OC(C)(C)C)CC1` the same measures were 10%, 43%, 18 nM, 13 nM and 1800 nM.
For `CC(C)(C)NC(=O)C1(C2CCCCC2)CCN(C(=O)[C@@H](Cc2ccc(F)cc2)NC(=O)[C@@H]2CN(CC(F)F)CCN2)CC1`, the results for the cAMP accumulation on Melanocortin receptor 3 [1] and on Melanocortin receptor 5 [2] were 6% and 19%, respectively. The compound also registered an IC50 on Melanocortin receptor 4 [3] of 13 nM. Further, the EC50 on Melanocortin receptor 4 [4] was 52 nM; on Melanocortin receptor 5 [5] it was 510 nM.
For `C[C@H](N)C(=O)N1CCN[C@H](C(=O)N[C@H](Cc2ccc(F)cc2)C(=O)N2CCC(C(=O)NC(C)(C)C)(C3CCCCC3)CC2)C1` the same measures were 12%, 27%, 30 nM, 270 nM and 2000 nM.
Turning to `CN1CCNC[C@H]1C(=O)N[C@H](Cc1ccc(F)cc1)C(=O)N1CCC(C(=O)NC(C)(C)C)(C2CCCCC2)CC1`, the cAMP accumulation at Melanocortin receptor 3 [1] and on Melanocortin receptor 5 [2] was 19% each time. Besides, the IC50 at Melanocortin receptor 4 [3] worked out at 87 nM. Besides, the figures for the half-maximal effective concentration (EC50) on Melanocortin receptor 4 [4], on Melanocortin receptor 5 [5] and at Melanocortin receptor 3 [6] were 29 nM, 3300 nM and 2900 nM, respectively.
With `CN1CCN[C@H](C(=O)N[C@H](Cc2ccc(F)cc2)C(=O)N2CCC(C(=O)NC(C)(C)C)(C3CCCCC3)CC2)C1`, the half-life was 4.1 h in data set [7], 1.6 h in data set [11] and 1.3 h in data set [21]. Also, the cAMP accumulation at Melanocortin receptor 3 [1] is 11%; in data set [17], 85%; in [19] it was 21%; in data set [20], 66%; in data set [25], 76%; at Melanocortin receptor 5 [2] it was 32%. Also, the bioavailability came to 17% in data set [8], 9% in data set [13] and 11% in [22]. In addition, the Vd in [9] was 1.2 L/kg; in [18], 5.4 L/kg; in data set [24] it was 1.2 L/kg. Besides, the IC50 was 2400 nM and 13000 nM on Melanocortin receptor 5 [10]; 8 nM and 7 nM and 16 nM (2×) on Melanocortin receptor 4 [3]; 2300 nM and 1100 nM and 1600 nM at Melanocortin receptor 3 [23]; 1700 nM in data set [30]. Also, the values for the Tmax in [12], in [14] and in [29] were 5 h, 1.54 h and 0.75 h, respectively. Further, the EC50 was 11 nM (2×) and 6 nM and 16 nM on Melanocortin receptor 4 [4]; 350 nM in data set [16]; 1900 nM at Melanocortin receptor 5 [5]; 1900 nM at Melanocortin receptor 5 [5] (cho); 990 nM at Melanocortin receptor 3 [6]. Further, the results for the clearance in data set [15], in [27] and in data set [28] were 5.6 mL/min/kg, 48.7 mL/min/kg and 15.7 mL/min/kg, respectively. The compound further returned an Activity in the data set with Rattus norvegicus of 21.2%. Moreover, the Activation in [26] is 4% and 7% and 11%.

What is called IC50 is the point on the concentration scale where inhibition reaches its midpoint. What is called EC50 is the concentration needed to bring the measured effect to its halfway point. A high value points to a need for much substance. Usually half-life stands for the time in which the quantity being followed falls by half. For orientation: bioavailability means the share of a dose that reaches the circulation, judged against a reference dose that is usually intravenous. Read a low bioavailability as poor availability. One may read the Tmax as the time from dosing to the highest level.

The values above are taken from ChEMBL document CHEMBL1145148, “Discovery of (2S)-N-[(1R)-2-[4-cyclohexyl-4-[[(1,1-dimethylethyl)amino]carbonyl]-1-piperidinyl]-1-[(4-fluorophenyl)methyl]-2-oxoethyl]-4-methyl-2-piperazinecarboxamide (MB243), a potent and selective melanocortin subtype-4 receptor agonist” (Bioorg Med Chem Lett, 2005).
